# Tests used:
# Format in all cases: in vivo, mice (C57BL6)
# TNF-α = test: Serum TNF-α by ELISA in older mice (systemic inflammation); conditions: 25 mg/kg oral 3 times a week for 15 weeks, vs vehicle-treated older mice, p<0.05
# Description: (§1) All animal studies were conducted under protocols approved by APLAC from Stanford University. Older and young animals on C57BL6 background were purchased from Taconic. Older animals are defined as those above 36 weeks of age, when physiological aging process accelerates in mice, while young counterparts are 20 weeks of age. Data are presented as mean±SEM. Two-tailed Student's t-test and two-way ANOVA were used for statistical analyses. A p value of <0.05 is considered to be statistically significant. Older animals were orally treated 3 times a week for 15 weeks with 0.5% methylcellulose (vehicle) or ZLN005 (Sigma) at 25 mg/kg in vehicle, starting at 37 weeks of age. Treated older animals (n=6), non-treated older animals or aged animals (n=6), and young animals (20 weeks old, n=6) were sacrificed after drug treatment and their brain tissues were collected. PBS-perfused brain tissues of sacrificed animals were digested with Collagenase I and processed for flow cytometry (Ginhoux et al Science. 330:841-5.2010). Brain microglia were phenotyped with fluorochrome-labeled antibodies to CCL2 and TNF-α (Biolegend) for flow cytometric acquisition (LSRII. BD) and analysis (FlowJo). TNF-α levels in serum of young mice, vehicle-treated older mice, and ZLN-treated older mice (from Example 2) were measured by ELISA to determine TNF-α levels which indicated systemic inflammation. […]
# [1] = Marble burying assay in older mice; conditions: older mice at 52 weeks of age, 25 mg/kg oral 3 times a week for 15 weeks, 12 marbles, 30 minutes, vs vehicle-treated older mice, p<0.05
# Description: All animal studies were conducted under protocols approved by APLAC from Stanford University. Older and young animals on C57BL6 background were purchased from Taconic. Older animals are defined as those above 36 weeks of age, when physiological aging process accelerates in mice, while young counterparts are 20 weeks of age. Data are presented as mean±SEM. Two-tailed Student's t-test and two-way ANOVA were used for statistical analyses. A p value of <0.05 is considered to be statistically significant.
# Animals were orally treated 3 times a week for 15 weeks with 0.5% methylcellulose (vehicle) or ZLN005 (Sigma) at 25 mg/kg in vehicle, starting at 37 weeks of age. At 52 weeks of age, the older animals were subjected to a marble burying assay, a behavioral test of anxiety (Dekeyne A. Therapie. 60:477-84.2005). Each animal was given 12 marbles on top of bedding in individual cage and allowed to run free in the cage for 30 minutes. After this period of time, each buried marble was individually assigned a number based on its degree of being buried (1=90-100% hidden, 0.75=60-90% hidden, 0.5=30-60% hidden, 0=below 30% hidden), and then the sum of the numbers of 12 marbles buried by each mouse is calculated as the marble burying score of the mouse. […] Unpaired t-test was used for statistical analysis.
# microglia [2] = test: Flow cytometry of brain microglia for CCL2 and TNF-α production in older mice; conditions: 25 mg/kg oral 3 times a week for 15 weeks from 37 weeks of age, vs vehicle-treated older mice
# Description: as §1, with “The results are summarized” for “TNF-α levels”, “FIG. 2: Y-axis represents %” for “serum”, “microglia that express CCL2 or TNF-α. ANOVA was used for statistical analysis.” for “young mice, vehicle-treated older mice, and ZLN-treated older mice (from Example 2) were measured by ELISA to determine TNF-α levels which indicated systemic inflammation.”
# microglia [3] = test: Flow cytometry of brain microglia for Slc2al expression and 2-NBDG glucose uptake in older mice; conditions: 25 mg/kg oral 3 times a week for 15 weeks from 37 weeks of age, vs vehicle-treated older mice, p<0.05
# Description: All animal studies were conducted under protocols approved by APLAC from Stanford University. Older and young animals on C57BL6 background were purchased from Taconic. Older animals are defined as those above 36 weeks of age, when physiological aging process accelerates in mice, while young counterparts are 20 weeks of age. Data are presented as mean±SEM. Two-tailed Student's t-test and two-way ANOVA were used for statistical analyses. A p value of <0.05 is considered to be statistically significant. Older animals were orally treated 3 times a week for 15 weeks with 0.5% methylcellulose (vehicle) or ZLN005 (Sigma) at 25 mg/kg in vehicle, starting at 37 weeks of age. Treated older animals (n=6), non-treated older animals (n=6), and young animals (20 weeks old, n=6) were sacrificed after drug treatment and their brain tissues collected. PBS-perfused brain tissues of sacrificed animals were digested with Collagenase I and processed for flow cytometry (Ginhoux et al Science, 330:841-5, 2010). Brain microglia were phenotyped with 2-NBDG (2-(N-(7-nitrobenz-2-oxa-1,3-diazol-4-yl)amino)-2-deoxyglucose, Invitrogen) and anti-Slc2al antibody (RnD) for flow cytometric acquisition (LSRII, BD) and analysis (FlowJo). The results are summarized in FIG. 1: Y-axis represents % of microglia that either express glucose transporter Slc2al or have taken up glucose fluorescent analog 2-NBDG. […]
smiles,measurement,setting,value
"CC(C)(C)c1ccc(-c2nc3ccccc3[nH]2)cc1 [ZLN005, 2-(4-tert-Butylphenyl)-1H-benzimidazole]",concentration of TNF-α in serum,TNF-α,decreased
same,marble burying score,[1],reduced the anxiety phenotype
same,% of microglia that express CCL2,microglia [2]; p<0.01,decreased
same,% of microglia that express TNF-α,microglia [2]; p<0.05,decreased
same,% of microglia that express glucose transporter Slc2al,microglia [3],decreased
same,% of microglia that have taken up glucose fluorescent analog 2-NBDG (glucose uptake),microglia [3],decreased

# From patent US12678424B2, “Method for preventing and/or treating systemic inflammation” (THE BOARD OF TRUSTEES OF THE LELAND STANFORD JUNIOR …, priority 2015, dated 2026)
